Measured values published in ChEMBL document CHEMBL1126161, “3,4-Dihydroquinolin-2(1H)-ones as combined inhibitors of thromboxane A2 synthase and cAMP phosphodiesterase” (J Med Chem, 1992).

Experiments:
Mus musculus [1] = experiment: Protection against mortality in pulmonary thromboembolism model in mice at 9 mg/kg; format: functional
Rattus norvegicus [2] = experiment: (§1) Antihypertensive activity in conscious spontaneously hypertensive rat (SHR), percent change in heart rate (beats/min) after 1 hr at 3 mg/kg peroral dose; format: functional; details: route oral
Mus musculus [3] = experiment: Protection against mortality in pulmonary thromboembolism model in mice at 3 mg/kg; format: functional
Mus musculus [4] = experiment: Time course of protection against mortality in a pulmonary thromboembolism model in mice after -3 hr at 10 mg/kg; format: functional
Rattus norvegicus [5] = experiment: Antihypertensive activity in conscious spontaneously hypertensive rat (SHR), percent change in Systolic blood pressure (SBP) at 1 mg/kg peroral dose after 1 hr; format: functional; details: route oral
Homo sapiens [6] = species: Homo sapiens; experiment: In vitro inhibition of ADP-induced aggregation of human PRP in the presence of pig aortal microsomes (PAM).; format: functional
Rattus norvegicus [7] = experiment: Antihypertensive activity in conscious spontaneously hypertensive rat (SHR), percent change in Systolic blood pressure (SBP) at 10 mg/kg peroral dose; format: functional; details: route oral
Rattus norvegicus [8] = experiment: Antihypertensive activity in conscious spontaneously hypertensive rat (SHR), percent change in Systolic blood pressure (SBP) at 1 mg/kg peroral dose after 2 hr; format: functional; details: route oral
Mus musculus [9] = experiment: Time course of protection against mortality in a pulmonary thromboembolism model in mice after -7hr at 10 mg/kg; format: functional
Rattus norvegicus [10] = experiment: Antihypertensive activity in conscious spontaneously hypertensive rat (SHR), percent change in Systolic blood pressure (SBP) at 0.3 mg/kg peroral dose after 1 hr; format: functional; details: route oral
Rattus norvegicus [11] = experiment: Antihypertensive activity in conscious spontaneously hypertensive rat (SHR), percent change in heart rate (beats/min) after 4 hr at 0.3 mg/kg peroral dose; format: functional; details: route oral
Homo sapiens [12] = species: Homo sapiens; experiment: Ratio of IC50(w/oPAM)/IC50(w/PAM); format: functional
Rattus norvegicus [13] = experiment: Antihypertensive activity in conscious spontaneously hypertensive rat (SHR), percent change in heart rate (beats/min) after 1 hr at 0.3 mg/kg peroral dose; format: functional; details: route oral
Rattus norvegicus [14] = experiment: Antihypertensive activity in conscious spontaneously hypertensive rat (SHR), percent change in Systolic blood pressure (SBP) at 10 mg/kg peroral dose after 1 hr; format: functional; details: route oral
Homo sapiens [15] = species: Homo sapiens; experiment: Inhibition of [14C]arachidonic acid induced platelet aggregation at 50 uM (Control TXB2 = 14.9+/-2.5); format: functional
Rattus norvegicus [16] = experiment: Antihypertensive activity in conscious spontaneously hypertensive rat (SHR), percent change in heart rate (beats/min) after 2 hr at 3 mg/kg peroral dose; format: functional; details: route oral
Rattus norvegicus [17] = experiment: Antihypertensive activity in conscious spontaneously hypertensive rat (SHR), percent change in heart rate (beats/min) after 12 hr at 3 mg/kg peroral dose; format: functional; details: route oral
Rattus norvegicus [18] = experiment: Antihypertensive activity in conscious spontaneously hypertensive rat (SHR), percent change in heart rate (beats/min) after 12 hr at 0.3 mg/kg peroral dose; format: functional; details: route oral
Mus musculus [19] = experiment: Protection against mortality in pulmonary thromboembolism model in mice at 12 mg/kg; format: functional
Rattus norvegicus [20] = experiment: (§2) Antihypertensive activity in conscious spontaneously hypertensive rat (SHR), percent change in Systolic blood pressure (SBP) at 0.3 mg/kg peroral dose after 12 hr; format: functional; details: route oral
Rattus norvegicus [21] = experiment: Antihypertensive activity in conscious spontaneously hypertensive rat (SHR), percent change in heart rate (beats/min) after 12 hr at 10 mg/kg peroral dose; format: functional; details: route oral
Rattus norvegicus [22] = experiment: (§3) Antihypertensive activity in conscious spontaneously hypertensive rat (SHR), percent change in Systolic blood pressure (SBP) at 0.3 mg/kg peroral dose after 4 hr; format: functional; details: route oral
Homo sapiens [23] = species: Homo sapiens; experiment: Inhibition of [14C]arachidonic acid induced platelet aggregation at 50 uM (Control 6-keto-PGF1-alpha = 1.45+/-0.6); format: functional
Rattus norvegicus [24] = experiment: Antihypertensive activity in conscious spontaneously hypertensive rat (SHR), percent change in heart rate (beats/min) after 4 hr at 10 mg/kg peroral dose; format: functional; details: route oral
Mus musculus [25] = experiment: Protection against mortality in pulmonary thromboembolism model in mice at 30 mg/kg; format: functional
Rattus norvegicus [26] = experiment: Antihypertensive activity in conscious spontaneously hypertensive rat (SHR), percent change in heart rate (beats/min) after 8 hr at 1 mg/kg peroral dose; format: functional; details: route oral
Mus musculus [27] = experiment: Time course of protection against mortality in a pulmonary thromboembolism model in mice after -5 hr at 10 mg/kg; format: functional
Homo sapiens [28] = species: Homo sapiens; experiment: Ratio of IC50(PDE)/IC50(TXA2); format: functional
Rattus norvegicus [29] = experiment: Antihypertensive activity in conscious spontaneously hypertensive rat (SHR), percent change in heart rate (beats/min) after 12 hr at 1 mg/kg peroral dose; format: functional; details: route oral
Rattus norvegicus [30] = experiment: (§4) Antihypertensive activity in conscious spontaneously hypertensive rat (SHR), percent change in Systolic blood pressure (SBP) at 0.3 mg/kg peroral dose after 8 hr; format: functional; details: route oral
Rattus norvegicus [31] = experiment: (§5) Antihypertensive activity in conscious spontaneously hypertensive rat (SHR), percent change in Systolic blood pressure (SBP) at 3 mg/kg peroral dose after 2 hr; format: functional; details: route oral
Rattus norvegicus [32] = experiment: Antihypertensive activity in conscious spontaneously hypertensive rat (SHR), percent change in Systolic blood pressure (SBP) at 3 mg/kg peroral dose after 8 hr; format: functional; details: route oral
Rattus norvegicus [33] = experiment: as §3; format: functional; details: route oral; remark: listed apart in the source
Rattus norvegicus [34] = experiment: Antihypertensive activity in conscious spontaneously hypertensive rat (SHR), percent change in heart rate (beats/min) after 1 hr at 1 mg/kg peroral dose; format: functional; details: route oral
Rattus norvegicus [35] = experiment: as §4; format: functional; details: route oral; remark: listed apart in the source
Rattus norvegicus [36] = experiment: as §5; format: functional; details: route oral; remark: listed apart in the source
Homo sapiens [37] = species: Homo sapiens; experiment: Inhibition of [14C]arachidonic acid induced platelet aggregation at 500 uM (Control TXB2 = 14.9+/-2.5); format: functional
Rattus norvegicus [38] = experiment: Antihypertensive activity in conscious spontaneously hypertensive rat (SHR), percent change in heart rate (beats/min) after 2 hr at 0.3 mg/kg peroral dose; format: functional; details: route oral
Rattus norvegicus [39] = experiment: Ex vivo inhibition of blood platelet aggregation in rats at 50 mg/kg peroral dose after 5 hr; format: functional; details: route oral
Rattus norvegicus [40] = experiment: Antihypertensive activity in conscious spontaneously hypertensive rat (SHR), percent change in heart rate (beats/min) after 4 hr at 1 mg/kg peroral dose; format: functional; details: route oral
Rattus norvegicus [41] = experiment: Antihypertensive activity in conscious spontaneously hypertensive rat (SHR), percent change in heart rate (beats/min) after 2 hr at 10 mg/kg peroral dose; format: functional; details: route oral
Phosphodiesterase 3 = Phosphodiesterase 3 (Homo sapiens, UniProt Q14432+Q13370); experiment: Inhibition of human blood platelet c-AMP phosphodiesterase
Rattus norvegicus [42] = experiment: Antihypertensive activity in conscious spontaneously hypertensive rat (SHR), percent change in heart rate (beats/min) after 8 hr at 3 mg/kg peroral dose; format: functional; details: route oral
Rattus norvegicus [43] = experiment: as §2; format: functional; details: route oral; remark: listed apart in the source
Mus musculus [44] = experiment: Protection against mortality in pulmonary thromboembolism model in mice at 10 mg/kg; format: functional
Rattus norvegicus [45] = experiment: Antihypertensive activity in conscious spontaneously hypertensive rat (SHR), percent change in Systolic blood pressure (SBP) at 1 mg/kg peroral dose after 12 hr; format: functional; details: route oral
Rattus norvegicus [46] = experiment: as §1; format: functional; details: route oral; remark: listed apart in the source
Rattus norvegicus [47] = experiment: Ex vivo inhibition of blood platelet aggregation in rats at 50 mg/kg peroral dose after 3 hr; format: functional; details: route oral
Homo sapiens [48] = species: Homo sapiens; experiment: Inhibition of [14C]arachidonic acid induced platelet aggregation at 500 uM (Control 6-keto-PGF1-alpha = 1.45+/-0.6); format: functional

In the case of `O=C1CCc2cc(/C=C/n3ccnc3)ccc2N1`, the survival at 9 mg/kg (Mus musculus [1]) is reported as 50%, the “Change in heart rate” value (Rattus norvegicus [2]) is reported as -34% and the survival at 3 mg/kg (Mus musculus [3]) is reported as 20%. For the same compound, the survival at 10 mg/kg (Mus musculus [4]) was 20%, the “Change in systolic BP” value (Rattus norvegicus [5]) was -19% and the IC50 (Homo sapiens [6]) was 1200 nM. For the same compound, the “Change in systolic BP” value (Rattus norvegicus [7]) was -35%, the “Change in systolic BP” value (Rattus norvegicus [8]) was -8% and the survival at 10 mg/kg (Mus musculus [9]) was 0%. For the same compound, the “Change in systolic BP” value (Rattus norvegicus [10]) was -5%, the “Change in heart rate” value (Rattus norvegicus [11]) was -4% and the Ratio (Homo sapiens [12]) was 4.7. The “Change in heart rate” value (Rattus norvegicus [13]) was 3%, the “Change in systolic BP” value (Rattus norvegicus [14]) was -56% and the inhibition at 50 µM (Homo sapiens [15]) was 8%. The “Change in heart rate” value (Rattus norvegicus [16]) was 10%, the “Change in heart rate” value (Rattus norvegicus [17]) was 8% and the “Change in heart rate” value (Rattus norvegicus [18]) was -8%. For the same compound, the survival at 12 mg/kg (Mus musculus [19]) was 70%, the “Change in systolic BP” value (Rattus norvegicus [20]) was -1% and the “Change in heart rate” value (Rattus norvegicus [21]) was 29%. For the same compound, the “Change in systolic BP” value (Rattus norvegicus [22]) was -28%, the 6-keto-PGF1α level at 50 µM (Homo sapiens [23]) was 11.5% and the “Change in heart rate” value (Rattus norvegicus [24]) was 25%. For the same compound, the survival at 30 mg/kg (Mus musculus [25]) was 20%, the “Change in heart rate” value (Rattus norvegicus [26]) was -5% and the survival at 10 mg/kg (Mus musculus [27]) was 60%. The Ratio (Homo sapiens [28]) was 5.3, the “Change in heart rate” value (Rattus norvegicus [29]) was 1% and the “Change in systolic BP” value (Rattus norvegicus [30]) was -54%. The “Change in systolic BP” value (Rattus norvegicus [31]) was -40%, the “Change in systolic BP” value (Rattus norvegicus [32]) was -18% and the “Change in systolic BP” value (Rattus norvegicus [33]) was -1%. The “Change in heart rate” value (Rattus norvegicus [34]) was 17%, the “Change in systolic BP” value (Rattus norvegicus [35]) was -5% and the “Change in systolic BP” value (Rattus norvegicus [36]) was -21%. For the same compound, the inhibition at 500 µM (Homo sapiens [37]) was 4.3%, the “Change in heart rate” value (Rattus norvegicus [38]) was -13% and the inhibition in vivo at 50 mg/kg (Rattus norvegicus [39]) was 95.9%. The “Change in heart rate” value (Rattus norvegicus [40]) was 7%, the “Change in heart rate” value (Rattus norvegicus [41]) was 19% and the IC50 (Phosphodiesterase 3) was 6400 nM. The “Change in heart rate” value (Rattus norvegicus [42]) was 21%, the “Change in systolic BP” value (Rattus norvegicus [43]) was 1% and the survival at 10 mg/kg (Mus musculus [44]) was 90%. For the same compound, the “Change in systolic BP” value (Rattus norvegicus [45]) was -3%, the “Change in heart rate” value (Rattus norvegicus [46]) was 28% and the inhibition in vivo at 50 mg/kg (Rattus norvegicus [47]) was 94.7%. The inhibition at 500 µM (Homo sapiens [48]) was 21.1%.
